Test results reported in ChEMBL document CHEMBL1153452, “Synthesis and in vitro affinities of various MDL 100907 derivatives as potential 18F-radioligands for 5-HT2A receptor imaging with PET” (Bioorg Med Chem, 2009).

Assays:
physchem = conditions: Soerensen buffer
Histamine H2 receptor = Histamine H2 receptor (Homo sapiens, UniProt P25021)
[1] = target: 5-hydroxytryptamine receptor 5A (Homo sapiens, UniProt P47898)
[2] = target: T1, Alpha-2A adrenergic receptor (Homo sapiens, UniProt P08913)
T1 sequence (P08913 whole entry): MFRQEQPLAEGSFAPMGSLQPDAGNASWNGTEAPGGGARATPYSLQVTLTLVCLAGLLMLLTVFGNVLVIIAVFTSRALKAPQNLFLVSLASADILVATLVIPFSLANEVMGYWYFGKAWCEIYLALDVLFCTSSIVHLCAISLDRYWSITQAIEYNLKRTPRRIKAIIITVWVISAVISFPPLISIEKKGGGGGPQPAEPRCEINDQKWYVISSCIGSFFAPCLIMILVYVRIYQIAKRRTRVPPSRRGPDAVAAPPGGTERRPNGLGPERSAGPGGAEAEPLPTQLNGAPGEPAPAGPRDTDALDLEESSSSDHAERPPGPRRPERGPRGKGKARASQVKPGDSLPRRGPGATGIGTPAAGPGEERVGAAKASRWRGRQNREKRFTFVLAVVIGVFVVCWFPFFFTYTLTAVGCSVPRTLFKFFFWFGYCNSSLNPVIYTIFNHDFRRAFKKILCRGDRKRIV

[3] = target: Beta-3 adrenergic receptor (Homo sapiens, UniProt P13945)
Beta-3 adrenergic receptor, sequence (P13945 whole entry): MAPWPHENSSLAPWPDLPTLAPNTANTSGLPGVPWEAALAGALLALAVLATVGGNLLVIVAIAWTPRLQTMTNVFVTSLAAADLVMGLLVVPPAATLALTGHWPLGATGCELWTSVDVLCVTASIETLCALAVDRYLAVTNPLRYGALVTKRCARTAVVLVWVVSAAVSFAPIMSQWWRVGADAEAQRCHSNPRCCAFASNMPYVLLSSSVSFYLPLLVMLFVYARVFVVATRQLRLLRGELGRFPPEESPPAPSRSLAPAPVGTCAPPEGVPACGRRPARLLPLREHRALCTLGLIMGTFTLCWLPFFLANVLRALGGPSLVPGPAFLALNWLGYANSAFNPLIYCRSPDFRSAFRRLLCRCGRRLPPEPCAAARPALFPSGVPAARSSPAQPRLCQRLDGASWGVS

[4] = target: Sodium-dependent serotonin transporter (Homo sapiens, UniProt P31645)
Sodium-dependent serotonin transporter, sequence (P31645 whole entry): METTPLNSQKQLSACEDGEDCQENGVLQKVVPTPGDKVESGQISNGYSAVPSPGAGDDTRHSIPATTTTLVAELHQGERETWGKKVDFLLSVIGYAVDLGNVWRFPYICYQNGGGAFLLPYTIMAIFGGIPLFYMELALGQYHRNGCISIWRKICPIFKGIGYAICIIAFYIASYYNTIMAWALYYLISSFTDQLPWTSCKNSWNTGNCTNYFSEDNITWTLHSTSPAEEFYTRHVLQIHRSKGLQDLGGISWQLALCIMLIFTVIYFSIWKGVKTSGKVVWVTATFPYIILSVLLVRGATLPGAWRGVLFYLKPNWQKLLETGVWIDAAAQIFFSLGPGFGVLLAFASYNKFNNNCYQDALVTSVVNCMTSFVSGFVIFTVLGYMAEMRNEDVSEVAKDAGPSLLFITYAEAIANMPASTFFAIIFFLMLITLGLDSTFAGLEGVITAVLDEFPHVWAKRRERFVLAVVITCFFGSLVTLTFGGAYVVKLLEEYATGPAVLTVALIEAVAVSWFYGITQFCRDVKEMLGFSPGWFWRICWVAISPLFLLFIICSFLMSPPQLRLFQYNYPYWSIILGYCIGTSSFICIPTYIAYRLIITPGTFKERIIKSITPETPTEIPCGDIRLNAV

[5] = target: Alpha-2C adrenergic receptor (Homo sapiens, UniProt P18825)
[6] = target: 5-hydroxytryptamine receptor 1D (Homo sapiens, UniProt P28221)
D(4) dopamine receptor = D(4) dopamine receptor (Homo sapiens, UniProt P21917)
D(4) dopamine receptor, sequence (P21917 whole entry): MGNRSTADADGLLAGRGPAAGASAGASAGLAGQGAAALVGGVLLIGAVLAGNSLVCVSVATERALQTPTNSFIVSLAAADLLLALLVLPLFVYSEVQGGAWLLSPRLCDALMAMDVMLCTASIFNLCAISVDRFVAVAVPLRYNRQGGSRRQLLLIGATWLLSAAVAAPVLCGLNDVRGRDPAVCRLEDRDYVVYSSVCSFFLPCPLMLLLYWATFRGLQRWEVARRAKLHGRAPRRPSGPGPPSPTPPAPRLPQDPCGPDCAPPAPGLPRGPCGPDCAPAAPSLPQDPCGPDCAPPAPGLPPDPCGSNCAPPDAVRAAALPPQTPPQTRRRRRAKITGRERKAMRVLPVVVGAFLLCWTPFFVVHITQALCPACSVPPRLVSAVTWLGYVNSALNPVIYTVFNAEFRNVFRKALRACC

D(1A) dopamine receptor = D(1A) dopamine receptor (Homo sapiens, UniProt P21728)
Histamine H3 receptor = Histamine H3 receptor (Homo sapiens, UniProt Q9Y5N1)
Histamine H3 receptor, sequence (Q9Y5N1 whole entry): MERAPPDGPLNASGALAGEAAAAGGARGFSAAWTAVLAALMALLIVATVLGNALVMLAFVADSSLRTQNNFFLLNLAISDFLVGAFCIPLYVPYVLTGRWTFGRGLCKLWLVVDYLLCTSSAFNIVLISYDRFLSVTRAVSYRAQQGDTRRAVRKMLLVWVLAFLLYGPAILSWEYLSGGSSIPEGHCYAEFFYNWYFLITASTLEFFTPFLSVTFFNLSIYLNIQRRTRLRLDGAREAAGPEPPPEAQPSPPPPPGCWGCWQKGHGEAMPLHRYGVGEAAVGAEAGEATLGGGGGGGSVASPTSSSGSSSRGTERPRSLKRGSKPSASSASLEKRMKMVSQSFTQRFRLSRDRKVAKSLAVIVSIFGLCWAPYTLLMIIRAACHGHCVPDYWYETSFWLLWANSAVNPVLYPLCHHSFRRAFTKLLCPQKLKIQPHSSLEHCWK

[7] = target: 5-hydroxytryptamine receptor 6 (Homo sapiens, UniProt P50406)
5-hydroxytryptamine receptor 6, sequence (P50406 whole entry): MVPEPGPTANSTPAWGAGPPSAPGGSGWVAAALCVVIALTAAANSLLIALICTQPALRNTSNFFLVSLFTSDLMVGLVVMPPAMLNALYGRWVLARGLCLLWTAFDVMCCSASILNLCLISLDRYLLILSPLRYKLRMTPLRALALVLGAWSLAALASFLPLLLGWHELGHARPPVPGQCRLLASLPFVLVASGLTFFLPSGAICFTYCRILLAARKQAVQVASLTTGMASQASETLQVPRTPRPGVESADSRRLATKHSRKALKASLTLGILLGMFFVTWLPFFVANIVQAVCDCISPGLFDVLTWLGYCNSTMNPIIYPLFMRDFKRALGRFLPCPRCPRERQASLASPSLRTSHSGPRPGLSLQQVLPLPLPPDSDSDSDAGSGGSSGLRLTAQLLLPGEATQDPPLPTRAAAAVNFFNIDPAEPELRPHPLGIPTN

Mu-type opioid receptor = Mu-type opioid receptor (Homo sapiens, UniProt P35372)
[8] = target: 5-hydroxytryptamine receptor 2B (Homo sapiens, UniProt P41595)
[9] = target: T2, Alpha-1B adrenergic receptor (Homo sapiens, UniProt P35368)
T2 sequence (P35368 whole entry): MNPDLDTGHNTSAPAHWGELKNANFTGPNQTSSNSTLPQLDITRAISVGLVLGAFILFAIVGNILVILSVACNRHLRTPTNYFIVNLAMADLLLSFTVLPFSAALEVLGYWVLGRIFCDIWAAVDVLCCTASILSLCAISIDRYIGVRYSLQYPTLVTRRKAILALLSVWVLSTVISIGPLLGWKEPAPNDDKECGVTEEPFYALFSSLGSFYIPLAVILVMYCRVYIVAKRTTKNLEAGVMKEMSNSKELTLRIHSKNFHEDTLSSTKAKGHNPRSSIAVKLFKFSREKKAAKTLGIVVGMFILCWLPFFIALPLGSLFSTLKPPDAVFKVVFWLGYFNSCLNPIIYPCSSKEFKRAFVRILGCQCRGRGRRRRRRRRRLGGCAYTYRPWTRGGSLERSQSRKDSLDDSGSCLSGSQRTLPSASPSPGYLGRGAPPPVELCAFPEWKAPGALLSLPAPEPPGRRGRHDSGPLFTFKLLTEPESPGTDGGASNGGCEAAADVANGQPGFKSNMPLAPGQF

Histamine H1 receptor = Histamine H1 receptor (Homo sapiens, UniProt P35367)
Histamine H1 receptor, sequence (P35367 whole entry): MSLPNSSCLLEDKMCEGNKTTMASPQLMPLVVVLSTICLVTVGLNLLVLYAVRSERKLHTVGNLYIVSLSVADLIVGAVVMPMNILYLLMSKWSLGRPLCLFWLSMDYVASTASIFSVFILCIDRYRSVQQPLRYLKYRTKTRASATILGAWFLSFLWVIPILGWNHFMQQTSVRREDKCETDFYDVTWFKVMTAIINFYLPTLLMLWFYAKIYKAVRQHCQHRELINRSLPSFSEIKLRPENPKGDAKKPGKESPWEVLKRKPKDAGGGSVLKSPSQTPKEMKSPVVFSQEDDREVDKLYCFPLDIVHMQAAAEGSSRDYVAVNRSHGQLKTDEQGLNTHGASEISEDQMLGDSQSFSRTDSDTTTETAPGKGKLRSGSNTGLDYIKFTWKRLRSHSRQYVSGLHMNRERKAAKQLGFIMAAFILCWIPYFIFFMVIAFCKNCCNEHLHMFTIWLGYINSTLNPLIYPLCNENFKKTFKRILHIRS

[10] = target: Sodium-dependent dopamine transporter (Homo sapiens, UniProt Q01959)
Sodium-dependent dopamine transporter, sequence (Q01959 whole entry): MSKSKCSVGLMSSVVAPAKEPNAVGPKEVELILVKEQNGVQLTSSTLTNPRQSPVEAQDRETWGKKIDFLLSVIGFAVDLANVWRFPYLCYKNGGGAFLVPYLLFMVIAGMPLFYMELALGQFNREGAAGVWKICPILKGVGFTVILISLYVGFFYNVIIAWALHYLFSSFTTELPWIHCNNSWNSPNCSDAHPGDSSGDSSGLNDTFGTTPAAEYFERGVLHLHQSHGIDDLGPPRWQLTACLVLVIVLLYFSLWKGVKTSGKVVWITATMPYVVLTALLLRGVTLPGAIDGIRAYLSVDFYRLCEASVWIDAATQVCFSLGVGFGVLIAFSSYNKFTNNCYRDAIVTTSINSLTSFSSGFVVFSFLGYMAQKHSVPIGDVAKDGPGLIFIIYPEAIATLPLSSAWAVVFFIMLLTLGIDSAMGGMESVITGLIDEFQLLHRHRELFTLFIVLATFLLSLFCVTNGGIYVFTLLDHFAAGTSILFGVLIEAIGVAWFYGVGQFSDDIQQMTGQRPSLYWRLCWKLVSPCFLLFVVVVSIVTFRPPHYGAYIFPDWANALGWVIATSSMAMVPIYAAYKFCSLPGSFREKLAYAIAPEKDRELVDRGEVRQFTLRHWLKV

D(2) dopamine receptor [11] = target: T3, D(2) dopamine receptor (Homo sapiens, UniProt P14416)
[12] = target: T4, 5-hydroxytryptamine receptor 2A (Rattus norvegicus, UniProt P14842); test: biochemical
T4 sequence (P14842 whole entry): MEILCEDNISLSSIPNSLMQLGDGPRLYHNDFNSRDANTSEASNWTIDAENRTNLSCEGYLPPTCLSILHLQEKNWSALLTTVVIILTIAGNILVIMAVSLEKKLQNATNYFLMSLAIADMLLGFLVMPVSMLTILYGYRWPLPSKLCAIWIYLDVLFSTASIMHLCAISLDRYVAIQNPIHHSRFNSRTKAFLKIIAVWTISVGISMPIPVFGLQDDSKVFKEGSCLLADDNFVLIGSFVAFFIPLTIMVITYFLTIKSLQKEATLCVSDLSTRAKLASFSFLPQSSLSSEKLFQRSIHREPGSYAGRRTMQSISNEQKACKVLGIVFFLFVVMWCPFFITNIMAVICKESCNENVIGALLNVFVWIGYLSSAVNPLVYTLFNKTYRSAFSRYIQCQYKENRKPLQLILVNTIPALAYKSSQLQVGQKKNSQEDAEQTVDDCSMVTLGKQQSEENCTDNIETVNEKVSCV

D(1B) dopamine receptor = D(1B) dopamine receptor (Homo sapiens, UniProt P21918)
[13] = target: Alpha-1A adrenergic receptor (Homo sapiens, UniProt P35348)
[14] = target: T4, 5-hydroxytryptamine receptor 2A; test: Displacement of [3H]altanserine from rat cortical membrane 5HT2A receptor
D(2) dopamine receptor [15] = target: T3, D(2) dopamine receptor; test: Binding affinity to dopamine D2 receptor by competitive binding experiment

5-hydroxytryptamine receptor 5A, sequence (P47898 whole entry): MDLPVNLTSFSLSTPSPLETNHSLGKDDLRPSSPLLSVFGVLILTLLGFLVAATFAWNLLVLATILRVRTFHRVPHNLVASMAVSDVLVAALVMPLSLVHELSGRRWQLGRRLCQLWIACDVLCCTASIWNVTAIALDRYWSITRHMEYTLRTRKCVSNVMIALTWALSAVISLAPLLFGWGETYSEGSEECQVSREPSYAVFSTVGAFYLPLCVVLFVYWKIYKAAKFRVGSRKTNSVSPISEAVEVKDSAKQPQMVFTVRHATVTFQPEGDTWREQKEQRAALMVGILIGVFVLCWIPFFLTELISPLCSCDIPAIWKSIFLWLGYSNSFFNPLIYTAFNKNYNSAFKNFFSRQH
Histamine H2 receptor, sequence (P25021 whole entry): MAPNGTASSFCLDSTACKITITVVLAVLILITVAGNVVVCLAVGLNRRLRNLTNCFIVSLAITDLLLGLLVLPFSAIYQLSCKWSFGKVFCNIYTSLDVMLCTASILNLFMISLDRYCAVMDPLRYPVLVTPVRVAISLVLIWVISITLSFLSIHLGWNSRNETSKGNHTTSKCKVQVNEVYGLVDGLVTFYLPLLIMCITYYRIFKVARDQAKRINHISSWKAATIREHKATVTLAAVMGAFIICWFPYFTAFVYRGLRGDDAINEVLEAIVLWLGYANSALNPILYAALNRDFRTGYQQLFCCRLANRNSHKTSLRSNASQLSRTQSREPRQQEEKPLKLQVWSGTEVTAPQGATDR

Row | SMILES | logP (physchem) | Ki [1] [nM] | Ki [6] [nM] | Ki [7] [nM] | Ki [8] [nM] | Ki [12] [nM] | further results
1 | COc1c(OCCF)cccc1C(O)C1CCN(CCc2ccc(F)cc2)CC1 (configuration not stated) | 2.8 | > 10000 | 706 | 3890 | 299 |  | Ki (Histamine H2 receptor): 3180 nM; Ki [2]: > 10000 nM; Ki [3]: > 10000 nM; Ki [4]: 3520 nM; Ki [5]: 148 nM; Ki (D(4) dopamine receptor): 544 nM; Ki (D(1A) dopamine receptor): 899 nM; Ki (Histamine H3 receptor): > 10000 nM; Ki (Mu-type opioid receptor): > 10000 nM; Ki [9]: 325 nM; Ki (Histamine H1 receptor): 374 nM; Ki [10]: > 10000 nM; Ki (D(2) dopamine receptor [11]): > 10000 nM
2 | COc1c(O)cccc1C(O)C1CCN(CCc2ccc([N+](=O)[O-])cc2)CC1 (configuration not stated) | 1.9 |  |  |  |  |  | 
3 | COc1c(OCCF)cccc1C(O)C1CCN(CCc2ccc([N+](=O)[O-])cc2)CC1 (configuration not stated) | 2.37 | > 10000 | 3420 | > 10000 | 1840 | 26 | 
4 | COc1ccc(CCN2CCC(C(=O)c3cccc(OCCF)c3OC)CC2)cc1 | 3.02 | > 10000 | 1440 | > 10000 | 1970 | 153 | 
5 | COc1cccc(C(O)C2CCN(Cc3ccc(F)cc3)CC2)c1OC (configuration not stated) |  |  |  |  |  | > 1000 | 
6 | COc1c(OCCF)cccc1C(O)C1CCN(CCc2ccc(N)cc2)CC1 (configuration not stated) |  |  |  |  |  | 2.06 | 
7 | COc1ccc(CCN2CCC(C(O)c3cccc(OCCF)c3OC)CC2)cc1 (configuration not stated) | 2.72 | > 10000 | > 10000 | > 10000 | 2750 | 59 | 
8 | COc1c(OCCF)cccc1C(=O)C1CCN(CCc2ccc([N+](=O)[O-])cc2)CC1 | 2.71 | > 10000 | 1830 | > 10000 | 1050 | 118 | 
9 | COc1c(OCCF)cccc1C(O)C1CCN(C(=O)Cc2ccccc2)CC1 (configuration not stated) | 1.57 |  |  |  |  | 1990 | 
10 | COc1ccc(CCN2CCC(C(O)c3cccc(OC)c3OC)CC2)cc1 (configuration not stated) |  |  |  |  |  | 55 | 
11 | COc1c(OCCF)cccc1C(=O)C1CCN(CCc2ccc(F)cc2)CC1 | 3.08 | 1580 | 713 | > 10000 | 960 | 3.23 | Ki (Histamine H2 receptor): 1760 nM; Ki [2]: 863 nM; Ki [3]: > 10000 nM; Ki [4]: 3090 nM; Ki [5]: 333 nM; Ki (D(4) dopamine receptor): 174 nM; Ki (D(1A) dopamine receptor): 1410 nM; Ki (Histamine H3 receptor): > 10000 nM; Ki (Mu-type opioid receptor): > 10000 nM; Ki [9]: 550 nM; Ki (D(1B) dopamine receptor): 7400 nM; Ki (Histamine H1 receptor): 944 nM; Ki [10]: > 10000 nM; Ki (D(2) dopamine receptor [11]): 3830 nM; Ki [13]: 146 nM
12 | COc1cccc(C(O)C2CCN(CCc3ccc([N+](=O)[O-])cc3)CC2)c1OC (configuration not stated) |  |  |  |  |  | 90 | 
13 | COc1cccc([C@H](O)C2CCN(CCc3ccc(F)cc3)CC2)c1OC [VOLINANSERIN] | 2.98 |  |  |  |  |  | 

More lines, main results first:

Row | logP (physchem) | Ki [1] [nM] | Ki [6] [nM] | Ki [7] [nM] | Ki [8] [nM] | Ki [12] [nM] | SMILES | further results
14 |  |  |  |  |  | 0.25 | COc1c(O)cccc1[C@H](O)C1CCN(CCc2ccc(F)cc2)CC1 | 
15 |  |  |  |  |  | 1.34 | COc1c(O)cccc1C(=O)C1CCN(CCc2ccc(F)cc2)CC1 | 
16 | 2.92 |  |  |  |  | 1.63 | COc1c(OCCF)cccc1C(O)C1CCN(CCc2ccccc2)CC1 (configuration not stated) | 
17 | 2.27 |  |  |  |  | 1.24 | COc1c(O)cccc1C(O)C1CCN(CCc2ccc(F)cc2)CC1 (configuration not stated) | 
18 |  |  |  |  |  | 0.31 | COc1cccc(C(O)C2CCN(CCc3ccc(C)cc3)CC2)c1OC (configuration not stated) | 
19 | 2.8 | 6810 | 1060 | 3840 | 320 | 0.72 | COc1c(OCCF)cccc1[C@H](O)C1CCN(CCc2ccc(F)cc2)CC1 | Ki (Histamine H2 receptor): 2430 nM; Ki [2]: > 10000 nM; Ki [3]: > 10000 nM; Ki [4]: 2210 nM; Ki (D(4) dopamine receptor): 442 nM; Ki (D(1A) dopamine receptor): 3830 nM; Ki (Histamine H3 receptor): > 10000 nM; Ki (Mu-type opioid receptor): > 10000 nM; Ki [9]: 500 nM; Ki (D(1B) dopamine receptor): 7420 nM; Ki (Histamine H1 receptor): 509 nM; Ki [10]: > 10000 nM; Ki (D(2) dopamine receptor [11]): 2690 nM; Ki [13]: 335 nM
20 | 2.15 |  |  |  |  | 0.72 | O=C(c1ccc(F)cc1)C1CCN(CCn2c(=S)[nH]c3ccccc3c2=O)CC1 [ALTANSERIN] | Ki [14]: 0.13 nM; Ki (D(2) dopamine receptor [15]): 62 nM
